Where two headings read alike, the source gives them in different places.
Columns and labels:
H^+/K^+ ATPase [1] = biological target: T1, H^+/K^+ ATPase (Oryctolagus cuniculus, UniProt P27112); experiment: H+K+-ATPase assay (p-NPP to p-NP), enzyme from rabbit fundus; format: biochemical; conditions: pH 6.0, 30 min pre-incubation at 37° C.
T1 construct: using an enzyme isolated from the rabbit or porcine (pig) fundus; from tissue; host or cells: rabbit gastric fundus
Method: (§1) H+K+-ATPase Assay Protocol Description:
(§2) Evaluation of the effects of compounds on the activity of the H^+/K^+ ATPase activity was quantified by measuring the formation of para-nitrophenol (p-NP) from para-nitrophenol phosphate (p-NPP) using an enzyme isolated from the rabbit or porcine (pig) fundus.
(§3) The test compound, reference compound or water (control) are pre-incubated for 30 min at 37° C. with the enzyme (5 μg) in a buffer containing 40 mM Hepes/Tris (pH 6.0), 20 mM KCl, 5 mM MgCl2 and 1 mM ouabain. The enzymatic reaction was then initiated by the addition of 2 mM p-NPP.
(§4) The absorbance was measured immediately at k=405 nm using a microplate reader (EnVision, Perkin Elmer). This measurement at t=0 was also used to verify any compound interference with the spectrophotometric detection at the selected wavelength.
(§5) Thereafter, the mixture was incubated for 15 min at 37° C., after which time the reaction is stopped by addition of 0.5 M NaOH and a second measurement is made at the same wavelength (t=15). The enzyme activity is determined by subtracting the signal measured at t=0 from that measured at t=15. The results are expressed as a percent inhibition of the control enzyme activity.
(§6) The standard inhibitory reference compound is omeprazole,
(§7) Bibliographic reference: Dantzig, H., Minor, P. L. Garrigus, J. L., Fukuda, D. S. and Mynderse, J. S., Studies of the mechanism of action of A80915A, a semi-naphtolquinone natural product, as an inhibitor of gastric (H+/K+)-ATPase, Biochem. Pharmacol. (1991), 42: 2019.
(§8) Assay volume and format: 250 μl in 96-well plate
(§9) Compound addition: [100×] solution in solvent, then [10×] solution in water Maximum tolerable DMSO concentration: 1%

H^+/K^+ ATPase [2] = biological target: T2, H^+/K^+ ATPase (Sus scrofa, UniProt P19156); experiment: H+K+-ATPase assay (p-NPP to p-NP), enzyme from porcine (pig) fundus; format: biochemical; conditions: for IC50: enzyme from porcine fundus, pH 6.0, 30 min pre-incubation at 37° C.
T2 construct: using an enzyme isolated from the rabbit or porcine (pig) fundus; from tissue; host or cells: porcine (pig) gastric fundus
Method: as §1, §2, §3, §4, §5, §6, §7, §8, §9

[3] = tested on: Indomethacin-induced gastric ulceration; experiment: Indomethacin-induced gastric ulceration model in rats; format: in vivo, female albino Wistar rats; conditions: oral, 1 hour before indomethacin 30 mg/kg p.o.; for ED (effect similar to omeprazole 10 mg/kg): Rattus norvegicus, read-out: Indomethacin-induced ulcer model (dose @ which effect is similar to 10mpk of omeprazole)
Method: The anti-ulcer efficacy of various test compounds (I-A-1 to I-A-11, I-B-1 to I-B-3) was assessed in Indomethacin—induced gastric ulceration model in female albino Wistar rats (Bhattacharya S., Banerjee D., Bauri A. K., Chattopadhyay S., Bandyopadhyay S. K. Healing property of the piper betelphenol, allylpyrocatechol against indomethacin-induced stomach ulceration and mechanism of action. World J Gastroenterol., 13(27): 3705-13, 2007; Lee A. Animal models of gastroduodenal ulcer disease. Bailliere's Best Pract. Res. Clinic Gastroenterol., 14(1): 75-96, 2000). The test compounds were administered orally at various doses (0.2, 0.4, 0.8 and 1.6 mg/kg) in comparison to Omeprazole (10 mg/kg) as standard comparator.
Experiments were conducted in overnight fasted healthy female albino Wistar rats maintained at controlled environmental conditions of temperature and humidity with water given ad libitum. Non-steroidal anti-inflammatory drug (NSAID), Indomethacin (30 mg/kg, p.o.) was used to induce gastric ulcer (treatment groups) with a comparative group without indomethacin treatment (negative group). Indomethacin was administered to treatment groups 1 hour after oral treatment with Vehicle (1% CMC), various doses of test compounds (EPPIs) and Omeprazole (10 mg/kg). After 4-6 hours after indomethacin administration, the animals were sacrificed by cervical dislocation and their stomach was dissected out. Various parameters like macroscopic ulcer index, gastric mucus content and gastric acid pH measurements were undertaken. The rat stomachs were cut opened along the greater curvature for macroscopic determination of ulcer index.

H^+/K^+ ATPase [4] = biological target: T1, H^+/K^+ ATPase; conditions: literature value (Scott and Sundell, Eur. J Pharmacol 1985); read-out: IC50 (Rabbit); cited from earlier work
H^+/K^+ ATPase [5] = biological target: T2, H^+/K^+ ATPase; conditions: literature value (Keeling et al., Biochem Pharmacol 1985); read-out: IC50 (Pig-Porcine); cited from earlier work

T1 sequence (P27112 2-1035 limits assumed): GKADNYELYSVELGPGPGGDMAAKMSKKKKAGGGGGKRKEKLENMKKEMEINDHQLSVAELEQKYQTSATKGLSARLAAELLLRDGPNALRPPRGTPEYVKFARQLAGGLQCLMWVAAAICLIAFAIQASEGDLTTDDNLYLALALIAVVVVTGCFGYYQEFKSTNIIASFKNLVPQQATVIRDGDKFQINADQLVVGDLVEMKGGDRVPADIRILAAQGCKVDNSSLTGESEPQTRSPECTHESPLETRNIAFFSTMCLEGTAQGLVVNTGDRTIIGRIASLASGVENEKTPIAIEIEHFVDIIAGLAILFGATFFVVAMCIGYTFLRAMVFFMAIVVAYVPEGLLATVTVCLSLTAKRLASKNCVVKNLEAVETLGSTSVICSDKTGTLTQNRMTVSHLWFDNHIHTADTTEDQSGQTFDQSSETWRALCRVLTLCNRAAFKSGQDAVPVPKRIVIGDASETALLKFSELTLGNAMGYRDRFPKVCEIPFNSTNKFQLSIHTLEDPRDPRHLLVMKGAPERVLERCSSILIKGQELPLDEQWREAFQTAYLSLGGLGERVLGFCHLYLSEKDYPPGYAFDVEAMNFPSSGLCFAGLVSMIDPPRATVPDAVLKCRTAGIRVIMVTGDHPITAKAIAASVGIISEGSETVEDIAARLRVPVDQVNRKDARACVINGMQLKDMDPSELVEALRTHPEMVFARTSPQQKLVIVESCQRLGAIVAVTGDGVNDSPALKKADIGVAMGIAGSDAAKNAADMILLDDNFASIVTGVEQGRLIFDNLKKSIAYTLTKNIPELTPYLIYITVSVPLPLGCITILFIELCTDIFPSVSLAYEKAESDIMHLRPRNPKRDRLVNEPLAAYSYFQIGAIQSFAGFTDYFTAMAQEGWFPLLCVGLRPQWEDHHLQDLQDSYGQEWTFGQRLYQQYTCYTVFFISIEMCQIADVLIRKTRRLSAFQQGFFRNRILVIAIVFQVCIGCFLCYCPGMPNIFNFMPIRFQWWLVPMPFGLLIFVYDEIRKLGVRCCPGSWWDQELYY
T1 sequence (P18597 whole entry partner): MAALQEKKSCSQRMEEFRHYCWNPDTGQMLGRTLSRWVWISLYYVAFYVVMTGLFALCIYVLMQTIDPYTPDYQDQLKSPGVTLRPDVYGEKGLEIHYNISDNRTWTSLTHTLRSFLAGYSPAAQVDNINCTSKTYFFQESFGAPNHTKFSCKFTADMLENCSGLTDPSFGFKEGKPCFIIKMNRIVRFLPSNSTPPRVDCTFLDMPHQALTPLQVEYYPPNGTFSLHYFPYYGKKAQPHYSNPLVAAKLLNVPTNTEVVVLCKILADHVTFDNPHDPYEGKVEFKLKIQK
T2 sequence (P19156 2-1034 limits assumed): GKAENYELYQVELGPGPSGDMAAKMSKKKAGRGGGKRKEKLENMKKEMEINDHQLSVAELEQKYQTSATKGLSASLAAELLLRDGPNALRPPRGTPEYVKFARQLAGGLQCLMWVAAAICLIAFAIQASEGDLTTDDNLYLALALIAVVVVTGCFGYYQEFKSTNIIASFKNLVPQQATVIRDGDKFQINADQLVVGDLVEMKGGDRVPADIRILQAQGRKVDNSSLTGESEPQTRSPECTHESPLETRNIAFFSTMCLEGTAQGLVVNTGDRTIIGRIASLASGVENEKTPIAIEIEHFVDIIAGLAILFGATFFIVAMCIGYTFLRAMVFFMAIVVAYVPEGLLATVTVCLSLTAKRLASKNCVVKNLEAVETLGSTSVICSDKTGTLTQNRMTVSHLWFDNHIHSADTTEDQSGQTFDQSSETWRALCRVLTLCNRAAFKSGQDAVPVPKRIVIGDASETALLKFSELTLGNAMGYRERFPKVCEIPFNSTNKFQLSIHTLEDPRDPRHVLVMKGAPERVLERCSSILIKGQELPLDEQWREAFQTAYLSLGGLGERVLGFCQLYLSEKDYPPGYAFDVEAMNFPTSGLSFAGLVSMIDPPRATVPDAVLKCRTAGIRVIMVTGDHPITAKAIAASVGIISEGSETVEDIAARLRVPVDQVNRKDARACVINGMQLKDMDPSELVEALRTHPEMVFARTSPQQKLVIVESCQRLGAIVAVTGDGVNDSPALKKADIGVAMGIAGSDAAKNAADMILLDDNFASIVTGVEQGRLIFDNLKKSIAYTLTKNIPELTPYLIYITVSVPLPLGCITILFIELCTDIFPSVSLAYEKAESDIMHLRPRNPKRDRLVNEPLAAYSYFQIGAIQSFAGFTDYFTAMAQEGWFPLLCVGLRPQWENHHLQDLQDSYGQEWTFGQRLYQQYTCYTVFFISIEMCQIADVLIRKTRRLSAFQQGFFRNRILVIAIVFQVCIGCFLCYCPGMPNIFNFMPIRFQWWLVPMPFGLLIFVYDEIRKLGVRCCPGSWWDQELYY
T2 sequence (P18434 whole entry partner): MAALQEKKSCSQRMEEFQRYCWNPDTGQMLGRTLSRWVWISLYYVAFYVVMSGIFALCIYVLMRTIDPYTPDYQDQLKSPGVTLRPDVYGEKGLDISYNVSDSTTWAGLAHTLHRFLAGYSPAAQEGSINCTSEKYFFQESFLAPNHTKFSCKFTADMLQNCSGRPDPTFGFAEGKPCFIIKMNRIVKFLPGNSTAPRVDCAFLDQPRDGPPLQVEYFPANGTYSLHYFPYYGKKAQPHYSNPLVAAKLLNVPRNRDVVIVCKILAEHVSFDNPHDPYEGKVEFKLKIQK

Row | Compound | IC50 (H^+/K^+ ATPase [1]) [nM] | IC50 (H^+/K^+ ATPase [2]) [nM] | ED (effect similar to omeprazole 10 mg/kg) [3] [mg/kg] | Indomethacin-induced ulcer model (dose @ which effect is similar to 10mpk of omeprazole) [3] [mg/kg] | percent inhibition of the control enzyme activity (printed in IC50 (Pig-Porcine) column) (H^+/K^+ ATPase [2]; @ 3-30 uM) [% @ 3-30 uM] | IC50 (H^+/K^+ ATPase [4]) [µM] | IC50 (H^+/K^+ ATPase [5]) [µM]
1 | COc1ccc2[nH]c(-n3cc(C)c(=O)c(C)c3CSSCc3c(C)c(=O)c(C)cn3-c3nc4cc(OC)ccc4[nH]3)nc2c1 [I-A-6] | 1300 | 4100 | – | – | – | – | –
2 | Cc1cn(-c2nc3ncccc3[nH]2)c(CSSCc2c(C)c(=O)c(C)cn2-c2nc3ncccc3[nH]2)c(C)c1=O [I-B-1, 2-((2-((1,4-dihydro-1-(1H-imidazo[4,5-b]pyridin-2-yl)-3,5-dimethyl-4-oxopyridin-2-yl)methyl)disulfinyl)methyl)-1-(1H-imidazo[4,5-b]pyridin-2-yl)-3,5-dimethylpyridin-4(1H)-one] | 2800 | 14000 | 1.6 | – | – | – | –
3 | O=c1ccn(-c2nc3ccccc3[nH]2)c(C[S+]([O-])[S+]([O-])Cc2cc(=O)ccn2-c2nc3ccccc3[nH]2)c1 (centres unmarked) [I-A-1, 2-((2-((1-(1H-benzo[d]imidazol-2-yl)-1,4-dihydro-4-oxopyridin-2-yl)methyl)disulfinyl)methyl)-1-(1H-benzo[d]imidazol-2-yl)pyridin-4(1H)-one] | 1000 | 1800 | – | 1.6 | – | – | –
4 | COc1c(CSSCc2c(OC)c(=O)ccn2-c2nc3cc(OC(F)F)ccc3[nH]2)n(-c2nc3cc(OC(F)F)ccc3[nH]2)ccc1=O [I-A-11] | 1500 | 3300 | 1.6 | – | – | – | –
5 | COc1ccc2[nH]c(-n3cc(C)c(=O)c(C)c3C[S+]([O-])[S+]([O-])Cc3c(C)c(=O)c(C)cn3-c3nc4nc(OC)ccc4[nH]3)nc2n1 (centres unmarked) [I-B-3, 2-((2-((1,4-dihydro-1-(5-methoxy-1H-imidazo[4,5-b]pyridin-2-yl)-3,5-dimethyl-4-oxopyridin-2-yl)methyl)disulfinyl)methyl)-1-(5-methoxy-1H-imidazo[4,5-b]pyridin-2-yl)-3,5-dimethylpyridin-4(1H)-one] | – | – | – | 1.6 | 45 | – | –
6 | Cc1cn(-c2nc3ccccc3[nH]2)c(CSSCc2c(C)c(=O)c(C)cn2-c2nc3ccccc3[nH]2)c(C)c1=O [I-A-2] | 1000 | 1300 | 1.6 | – | – | – | –
7 | Cc1cn(-c2nc3cc(F)ccc3[nH]2)c(CSSCc2c(C)c(=O)c(C)cn2-c2nc3cc(F)ccc3[nH]2)c(C)c1=O [I-A-8] | 1200 | 1300 | 1.6 | – | – | – | –
8 | COc1ccc2[nH]c(-n3ccc(=O)c(OC)c3CSSCc3c(OC)c(=O)ccn3-c3nc4nc(OC)ccc4[nH]3)nc2n1 [I-B-2] | 2000 | 8400 | 1.6 | – | – | – | –
9 | COc1c(CSSCc2c(OC)c(=O)ccn2-c2nc3cc(C(F)(F)F)ccc3[nH]2)n(-c2nc3cc(C(F)(F)F)ccc3[nH]2)ccc1=O [I-A-9] | 1100 | 1700 | 1.6 | – | – | – | –
10 | COc1c(CSSCc2c(OC)c(=O)ccn2-c2nc3cc(C)ccc3[nH]2)n(-c2nc3cc(C)ccc3[nH]2)ccc1=O [I-A-5] | 1300 | 2300 | 1.6 | – | – | – | –
11 | COc1c(CSSCc2c(OC)c(=O)ccn2-c2nc3ccccc3[nH]2)n(-c2nc3ccccc3[nH]2)ccc1=O [I-A-3] | 1100 | 2000 | 1.6 | – | – | – | –
12 | Cc1ccc2[nH]c(-n3cc(C)c(=O)c(C)c3CSSCc3c(C)c(=O)c(C)cn3-c3nc4cc(C)ccc4[nH]3)nc2c1 [I-A-4] | 1600 | 2900 | – | – | – | – | –
13 | COc1ccc2[nH]c(-n3ccc(=O)c(OC)c3CSSCc3c(OC)c(=O)ccn3-c3nc4cc(OC)ccc4[nH]3)nc2c1 [I-A-7, 2-((2-((1,4-dihydro-3-methoxy-1-(5-methoxy-1H-benzo[d]imidazol-2-yl)-4-oxopyridin-2-yl)methyl)disulfinyl)methyl)-3-methoxy-1-(5-methoxy-1H-benzo[d]imidazol-2-yl)pyridin-4(1H)-one] | 1200 | 4700 | 1.6 | – | – | – | –
14 | COc1ccc2[nH]c([S+]([O-])Cc3ncc(C)c(OC)c3C)nc2c1 (centres unmarked) [Omeprazole, omeprazole] | – | – | – | – | – | 4 | 3.9

Reference: US9522924B1, “Pyridone derivatives as acid secretion inhibitors and process for preparation thereof” (Emcure Pharmaceuticals Limited, priority 2012, dated 2016)
